pIC50: −log10 of the molar value.
Tested on: 496974-208-R-J2-PDC complex spheroids, growth % test/control
Assay: Anticancer human tumor 496974-208-R-J2-PDC patient-derived pancreatic carcinoma cell line growth inhibition [CLK]
Conditions: for pIC50: curve of first compound; for viability, T/C: stronger effect = lower value
How it was run: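 Multi-cell-type spheroids combined patient-derived tumor cells with HUVEC endothelial cells and human mesenchymal stem cells. Paired agents were dosed in half-log steps down from about clinical Cmax, or from 10 microM where Cmax was unknown.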

[1] = second compound 0.0316 µM, first compound 0.0316 µM
[2] = second compound 0.0316 µM, first compound 0.1 µM
[3] = second compound 0.0316 µM, first compound 0.316 µM
[4] = second compound 0.0316 µM, first compound 1 µM
[5] = second compound 0.0316 µM, first compound 3.16 µM
[6] = second compound 0.0316 µM, first compound 10 µM
[7] = second compound 0.1 µM, first compound 0.0316 µM
[8] = second compound 0.1 µM, first compound 0.1 µM
[9] = second compound 0.1 µM, first compound 0.316 µM
[10] = second compound 0.1 µM, first compound 1 µM
[11] = second compound 0.1 µM, first compound 3.16 µM
[12] = second compound 0.1 µM, first compound 10 µM
[13] = second compound 0.316 µM, first compound 0.0316 µM
[14] = second compound 0.316 µM, first compound 0.1 µM
[15] = second compound 0.316 µM, first compound 0.316 µM
[16] = second compound 0.316 µM, first compound 1 µM
[17] = second compound 0.316 µM, first compound 3.16 µM
[18] = second compound 0.316 µM, first compound 10 µM
[19] = second compound 1 µM, first compound 0.0316 µM
[20] = second compound 1 µM, first compound 0.1 µM
[21] = second compound 1 µM, first compound 0.316 µM
[22] = second compound 1 µM, first compound 1 µM
[23] = second compound 1 µM, first compound 3.16 µM
[24] = second compound 1 µM, first compound 10 µM
[25] = second compound 3.16 µM, first compound 0.0316 µM
[26] = second compound 3.16 µM, first compound 0.1 µM
[27] = second compound 3.16 µM, first compound 0.316 µM
[28] = second compound 3.16 µM, first compound 1 µM
[29] = second compound 3.16 µM, first compound 3.16 µM
[30] = second compound 3.16 µM, first compound 10 µM
[31] = second compound 10 µM, first compound 0.0316 µM
[32] = second compound 10 µM, first compound 0.1 µM
[33] = second compound 10 µM, first compound 0.316 µM
[34] = second compound 10 µM, first compound 1 µM
[35] = second compound 10 µM, first compound 3.16 µM
[36] = second compound 10 µM, first compound 10 µM
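Further: spheroids exposed to the drugs for 7 days before readout.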
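Wherever viability, T/C is given: 100% = DMSO vehicle control wells.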

Structure (SMILES): O=C(c1cc(Cc2n[nH]c(=O)c3ccccc23)ccc1F)N1CCN(C(=O)C2CC2)CC1 + CN1CCN(c2cc(C(=O)Nc3cc4cc(-c5cnn(C)c5)ccc4cn3)ccn2)CC1
- pIC50 (second compound 0.0316 µM): < 5.00
- pIC50 (second compound 0.1 µM): < 5.00
- pIC50 (second compound 0.316 µM): > 7.50
- pIC50 (second compound 1 µM): > 7.50
- pIC50 (second compound 3.16 µM): > 7.50
- pIC50 (second compound 10 µM): > 7.50
- viability, T/C [1]: 98.7%
- viability, T/C [2]: 96%
- viability, T/C [3]: 87.4%
- viability, T/C [4]: 97.7%
- viability, T/C [5]: 88.3%
- viability, T/C [6]: 88.2%
- viability, T/C [7]: 82.7%
- viability, T/C [8]: 76%
- viability, T/C [9]: 80.2%
- viability, T/C [10]: 79.4%
- viability, T/C [11]: 83.2%
- viability, T/C [12]: 64.7%
- viability, T/C [13]: 5.96%
- viability, T/C [14]: 5.32%
- viability, T/C [15]: 5.38%
- viability, T/C [16]: 6.21%
- viability, T/C [17]: 5.51%
- viability, T/C [18]: 6.01%
- viability, T/C [19]: 0.53%
- viability, T/C [20]: 0.75%
- viability, T/C [21]: 1.95%
- viability, T/C [22]: 0.47%
- viability, T/C [23]: 1.71%
- viability, T/C [24]: 1.78%
- viability, T/C [25]: 0.81%
- viability, T/C [26]: 0.43%
- viability, T/C [27]: 0.55%
- viability, T/C [28]: 0.48%
- viability, T/C [29]: 0.71%
- viability, T/C [30]: 4%
- viability, T/C [31]: 0.41%
- viability, T/C [32]: 0.24%
- viability, T/C [33]: 0.82%
- viability, T/C [34]: 0.42%
- viability, T/C [35]: 2.08%
- viability, T/C [36]: 2.09%

Structure (SMILES): CC1(C)CCC(CN2CCN(c3ccc(C(=O)NS(=O)(=O)c4ccc(NCC5CCOCC5)c([N+](=O)[O-])c4)c(Oc4cnc5[nH]ccc5c4)c3)CC2)=C(c2ccc(Cl)cc2)C1 + CNC(=O)c1ccc(Nc2nc(OC3CCCC3)c3c(-c4ccc5nc(C)oc5c4)c[nH]c3n2)c(OC)c1
- pIC50 (second compound 0.0316 µM): 5.08
- pIC50 (second compound 0.1 µM): 5.15
- pIC50 (second compound 0.316 µM): 5.03
- pIC50 (second compound 1 µM): 5.25
- pIC50 (second compound 3.16 µM): 5.39
- pIC50 (second compound 10 µM): 5.41
- viability, T/C [1]: 87.7%
- viability, T/C [2]: 93.6%
- viability, T/C [3]: 86.4%
- viability, T/C [4]: 92.4%
- viability, T/C [5]: 84.4%
- viability, T/C [6]: 43.8%
- viability, T/C [7]: 75.1%
- viability, T/C [8]: 73.3%
- viability, T/C [9]: 76.8%
- viability, T/C [10]: 82.8%
- viability, T/C [11]: 72.8%
- viability, T/C [12]: 39.9%
- viability, T/C [13]: 75.8%
- viability, T/C [14]: 76.2%
- viability, T/C [15]: 73.6%
- viability, T/C [16]: 85.3%
- viability, T/C [17]: 71%
- viability, T/C [18]: 48.5%
- viability, T/C [19]: 71%
- viability, T/C [20]: 71.7%
- viability, T/C [21]: 73.5%
- viability, T/C [22]: 67.3%
- viability, T/C [23]: 61.1%
- viability, T/C [24]: 39.5%
- viability, T/C [25]: 59.5%
- viability, T/C [26]: 56.2%
- viability, T/C [27]: 61.5%
- viability, T/C [28]: 62.5%
- viability, T/C [29]: 52.6%
- viability, T/C [30]: 35.5%
- viability, T/C [31]: 55.8%
- viability, T/C [32]: 55.2%
- viability, T/C [33]: 54.3%
- viability, T/C [34]: 50.1%
- viability, T/C [35]: 54.4%
- viability, T/C [36]: 32.9%

Structure (SMILES): CC(Nc1ccc2c(c1)OCCn1cc(N3C(=O)OCC3C(F)F)nc1-2)C(N)=O (stereo unspecified) + CNC(=O)c1ccc(Nc2nc(OC3CCCC3)c3c(-c4ccc5nc(C)oc5c4)c[nH]c3n2)c(OC)c1
- pIC50 (second compound 0.0316 µM): 6.82
- pIC50 (second compound 0.1 µM): 6.74
- pIC50 (second compound 0.316 µM): 7.02
- pIC50 (second compound 1 µM): 7.16
- pIC50 (second compound 3.16 µM): 7.31
- pIC50 (second compound 10 µM): > 7.50
- viability, T/C [1]: 87.2%
- viability, T/C [2]: 55.2%
- viability, T/C [3]: 38.5%
- viability, T/C [4]: 23.6%
- viability, T/C [5]: 16.9%
- viability, T/C [6]: 9.1%
- viability, T/C [7]: 70.5%
- viability, T/C [8]: 63.7%
- viability, T/C [9]: 37.5%
- viability, T/C [10]: 23.7%
- viability, T/C [11]: 15.5%
- viability, T/C [12]: 10.6%
- viability, T/C [13]: 76.6%
- viability, T/C [14]: 48.4%
- viability, T/C [15]: 30.1%
- viability, T/C [16]: 23.4%
- viability, T/C [17]: 15.5%
- viability, T/C [18]: 9.62%
- viability, T/C [19]: 58.8%
- viability, T/C [20]: 46.8%
- viability, T/C [21]: 32.3%
- viability, T/C [22]: 20.1%
- viability, T/C [23]: 18.4%
- viability, T/C [24]: 9.57%
- viability, T/C [25]: 56.9%
- viability, T/C [26]: 38.6%
- viability, T/C [27]: 28.3%
- viability, T/C [28]: 20%
- viability, T/C [29]: 17.6%
- viability, T/C [30]: 12.8%
- viability, T/C [31]: 47.2%
- viability, T/C [32]: 38.8%
- viability, T/C [33]: 24.6%
- viability, T/C [34]: 19%
- viability, T/C [35]: 15.6%
- viability, T/C [36]: 13.7%
